Data taken from patent publication US20240376097A1, “BCL-2 Inhibitor” (BeiGene Ltd., priority 2020, published 2024).
pIC50: −log10 of the molar value. Where two headings read alike, the source gives them in different places.

Assays:
[1] = Metabolic Stability Study, liver microsome incubation (human); format: in vitro ADME; conditions: human liver microsomes 0.5 mg/mL, 1 μM compound, NADPH
Description: (§1) Biological Example: Metabolic Stability Study
(§2) The metabolic stability of some compounds was evaluated by using the liver microsome incubation system in vitro. Briefly, the test compounds at 1 μM, were incubated with 0.5 mg/mL liver microsomes from different species (human, dog, rat and mouse) with an NADPH regenerating system at 37° C. Samples were quenched at three time points (0, 30, 60 min) with organic solvent containing internal standards, and the supernatant was analyzed for parent loss via LC-MS/MS. Midazolam was used as the positive control to validate the incubation system.
(§3) where Cprotein is the microsomal protein concentration in the incubation system.
(§4) The value of CLint and T1/2 of Example F132b in WO2019210818 and representative compounds of the disclosure were determined, and the results are shown in Table 5.

[2] = Metabolic Stability Study, liver microsome incubation (mouse); format: in vitro ADME; conditions: mouse liver microsomes 0.5 mg/mL, 1 μM compound, NADPH
Description: as §1, §2, §3, §4

[3] = target: Recombinant human Bcl-2 protein (Homo sapiens (Human), UniProt P10415); test: Bcl-2 TR-FRET Assay; format: binding
How it was run: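 TR-FRET read (337 nm excitation, 520/490 nm emission) after 1 h with 0.5 nM FITC-labeled Bak peptide and Tb-cryptate anti-6His antibody. Bcl-2 at 0.05 nM had been pre-incubated 0.5 h with compound. IC50 fitted by four-parameter logistic equation.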

[4] = target: recombinant human Bcl-2 D103Y protein (Homo sapiens (Human), UniProt P10415, D103Y); test: Bcl-2-D103Y Biochemical Assay (TR-FRET); format: binding; conditions: for pIC50: TR-FRET, FITC labeled Bak peptide; for Ratio of Bcl-2 D103Y/Bcl-2 WT: ratio of IC50
How it was run: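 Compounds titrated against the Bcl-2 D103Y–ligand interaction; inhibition derived from the TR-FRET emission ratio 490 nm/520 nm after 337 nm excitation. Four-parameter logistic fitting gave IC50.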

[5] = test system: recombinant human Bcl-2-G101V protein; test: Bcl-2-G101V TR-FRET Assay; format: binding; conditions: ratio of biochemical IC50 Bcl-2 G101V / Bcl-2 WT
How it was run: (§5)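 Ex337/em490 & 520 nm TR-FRET; % inhibition of Bcl-2-G101V–ligand interaction from 490:520 ratio vs. increasing compound conc.; IC50 by 4-parameter logistic fit.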

[6] = target: recombinant human Bcl-2-G101V protein (Homo sapiens (Human), UniProt P10415, G101V); test: Bcl-2-G101V TR-FRET Assay; format: binding; conditions: Bcl-2 G101V mutant, TR-FRET; read-out: Biochemical assay (IC50, nM) Bcl-2 G101V
How it was run: as §5

[7] = test system: RS4;11 (BCL-2 dependent acute lymphoblastic leukemia cell line); test: RS4;11 Cell Proliferation Assay; format: cell-based; conditions: Homo sapiens, RS4-11, RS4;11 cells, read-out: Cellular proliferation assay (IC50, nM) RS4
How it was run: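 Viability measured via CellTiter-Glo luminescence after a 48 h, 37 °C exposure to compounds (10 points, highest 1 μM). Seeding was 50,000 RS4;11 cells per well in 10% FBS RPMI-1640; IC50 given as mean.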

[8] = test system: BCL-2 G101V knock-in cell line H96 (derive from RS4;11); test: Bcl 2-G101V Knock-In RS4;11 Cell Proliferation Assay; format: cell-based; conditions: Homo sapiens, RS4;11 Bcl-2 G101V knock-in clone H96, 48 hrs, CellTiter-GLO, read-out: Cellular proliferation assay (IC50, nM) RS4
How it was run: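 CellTiter-Glo luminescence after 48 h, 37 °C compound treatment (10 concentrations, maximum 1 μM or 10 μM) gave mean IC50 values. Cells were 50,000 per well of H96, a BCL2-G101V knock-in single clone derived from RS4;11 by Cas9 editing.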

[9] = Bcl-2 wild type, TR-FRET, read-out: Biochemical assay (IC50, nM) Bcl-2 WT
[10] = wild type Bcl-2, unit inferred, read-out: Bcl-2 WT

Structure (SMILES) | half-life at 1 μM ([1]; NA^# = very stable, beyond the detection limits, read-out: T1/2 (min) Human) | microsomal CLint at 1 μM ([1]; read-out: CLint (μL × min^−1 × mg^−1) Human) | half-life at 1 μM ([2]; NA^# = very stable, beyond the detection limits, read-out: T1/2 (min) mouse) | microsomal CLint at 1 μM ([2]; read-out: CLint (μL × min^−1 × mg^−1) mouse) | IC50 [3, 9] | IC50 [3, 10] | pIC50 [4] | Ratio of Bcl-2 D103Y/Bcl-2 WT [4] | Ratio of Bcl-2 G101V/WT [5] | IC50 [6] | IC50 [7] | IC50 [8]
CC(C)c1ccccc1C1CC(Cc2ccccc2)CCN1C1CC2(CCN(c3ccc(C(=O)NS(=O)(=O)c4ccc(NC[C@H]5CC[C@](C)(O)CC5)c([N+](=O)[O-])c4)c(Oc4cnc5[nH]ccc5c4)c3)CC2)C1 (stereo partly drawn) [Example 67, 2-((1H-pyrrolo[2,3-b]pyridin-5-yl)oxy)-4-(2-(4-benzyl-2-(2-isopropylphenyl)piperidin-1-yl)-7-azaspiro[3.5]nonan-7-yl)-N-((4-((((1r,4r)-4-hydroxy-4-methylcyclohexyl)methyl)amino)-3-nitrophenyl)sulfonyl)benzamide] | 309 min | 4.5 µL/min/mg | 272 min | 5.1 µL/min/mg | – | – | – | – | – | – | – | –
COc1cc(CN2CCN(C3CC4(C3)CN(c3ccc(C(=O)NS(=O)(=O)c5ccc(NC[C@H]6CC[C@](C)(O)CC6)c([N+](=O)[O-])c5)c(Oc5cnc6[nH]cc(F)c6c5)c3)C4)[C@H](c3ccccc3C(C)C)C2)ccc1OC1COC1 [Example 351] | – | – | – | – | 0.042 nM | 0.04 nM | 10.15 | 1.7 | 2.6 | 0.11 nM | 0.09 nM | 0.13 nM
COc1ccc(C(=O)N2CCN(C3CC4(C3)CN(c3ccc(C(=O)NS(=O)(=O)c5ccc(NC[C@H]6CC[C@](C)(O)CC6)c([N+](=O)[O-])c5)c(Oc5cnc6[nH]cc(F)c6c5)c3)C4)[C@H](c3ccccc3C(C)C)C2)cc1 [Example 353] | – | – | – | – | 0.077 nM | 0.07 nM | 9.92 | 1.5 | 3.3 | 0.25 nM | 0.2 nM | 0.64 nM
COC1C2CC3CCC(CN4CCN(C5CC6(C5)CN(c5ccc(C(=O)NS(=O)(=O)c7ccc(NC[C@H]8CC[C@](C)(O)CC8)c([N+](=O)[O-])c7)c(Oc7cnc8[nH]cc(F)c8c7)c5)C6)[C@H](c5ccccc5C(C)C)C4)(C2)CC31 (stereo partly drawn) [Example 355, 2-((3-fluoro-1H-pyrrolo[2,3-b]pyridin-5-yl)oxy)-N-((4-((((1r,4r)-4-hydroxy-4-methylcyclohexyl)methyl)amino)-3-nitrophenyl)sulfonyl)-4-(6-((2R)-2-(2-isopropylphenyl)-4-((3-methoxyoctahydro-5H-2,5-methanoinden-5-yl)methyl)piperazin-1-yl)-2-azaspiro[3.3]heptan-2-yl)benzamide] | – | – | – | – | 0.31 nM | 0.31 nM | 8.74 | 5.8 | 3.6 | 1.1 nM | 0.2 nM | 2.8 nM
COc1ccc(CN2CCN(C3CC4(C3)CN(c3ccc(C(=O)NS(=O)(=O)c5ccc(NCC67CC8CC(C6)CC(OC)(C8)C7)c([N+](=O)[O-])c5)c(Oc5cnc6[nH]cc(F)c6c5)c3)C4)[C@H](c3ccccc3C(C)C)C2)cc1 [Example 357, 2-((3-fluoro-1H-pyrrolo[2,3-b]pyridin-5-yl)oxy)-4-(6-((R)-2-(2-isopropylphenyl)-4-(4-methoxybenzyl)piperazin-1-yl)-2-azaspiro[3.3]heptan-2-yl)-N-((4-((((1r,5R,7S)-3-methoxyadamantan-1-yl)methyl)amino)-3-nitrophenyl)sulfonyl) benzamide] | – | – | – | – | 0.57 nM | 0.57 nM | 9.00 | 1.8 | 2.5 | 1.4 nM | 0.19 nM | 1 nM
COc1cc(CN2CCN(C3CC4(C3)CN(c3ccc(C(=O)NS(=O)(=O)c5ccc(NC[C@H]6CC[C@](C)(O)CC6)c([N+](=O)[O-])c5)c(Oc5cnc6[nH]cc(F)c6c5)c3)C4)[C@H](c3ccccc3C(C)C)C2)ccc1N1CC(OC)C1 [Example 359, 2-((3-fluoro-1H-pyrrolo[2,3-b]pyridin-5-yl)oxy)-N-((4-((((1r,4r)-4-hydroxy-4-methylcyclohexyl)methyl)amino)-3-nitrophenyl)sulfonyl)-4-(6-((R)-2-(2-isopropylphenyl)-4-(3-methoxy-4-(3-methoxyazetidin-1-yl)benzyl)piperazin-1-yl)-2-azaspiro[3.3]heptan-2-yl)benzamide] | – | – | – | – | 0.19 nM | 0.19 nM | 9.36 | 2.4 | 3.4 | 0.64 nM | 0.16 nM | 0.63 nM
COc1cc(CN2CCN(C3CC4(C3)CN(c3ccc(C(=O)NS(=O)(=O)c5ccc(NC[C@H]6CC[C@](C)(O)CC6)c([N+](=O)[O-])c5)c(Oc5cnc6[nH]cc(F)c6c5)c3)C4)[C@H](c3ccccc3C(C)C)C2)ccc1NC(C)C [Example 360] | – | – | – | – | 0.23 nM | 0.23 nM | 9.51 | 1.4 | 2.2 | 0.5 nM | 0.05 nM | 0.11 nM
CC(C)c1ccccc1[C@@H]1CN(Cc2ccc(C3COC3)cc2)CCN1C1CC2(C1)CN(c1ccc(C(=O)NS(=O)(=O)c3ccc(NC[C@H]4CC[C@](C)(O)CC4)c([N+](=O)[O-])c3)c(Oc3cnc4[nH]cc(F)c4c3)c1)C2 [Example 362, 2-((3-fluoro-1H-pyrrolo[2,3-b]pyridin-5-yl)oxy)-N-((4-((((1r,4r)-4-hydroxy-4-methylcyclohexyl)methyl)amino)-3-nitrophenyl)sulfonyl)-4-(6-((R)-2-(2-isopropylphenyl)-4-(4-(oxetan-3-yl)benzyl)piperazin-1-yl)-2-azaspiro[3.3]heptan-2-yl) benzamide] | – | – | – | – | 0.07 nM | 0.069 nM | 10.02 | 1.4 | 2 | 0.14 nM | 0.08 nM | 0.17 nM
COc1ccc(CN2CCN(C3CC4(C3)CN(c3ccc(C(=O)NS(=O)(=O)c5ccc(NC[C@H]6CC[C@](C)(O)CC6)c([N+](=O)[O-])c5)c(Oc5cnc6[nH]cc(F)c6c5)c3)C4)[C@H](c3ccccc3C(C)C)C2)cc1OC1CC1 [Example 364, 4-(6-((R)-4-(3-cyclopropoxy-4-methoxybenzyl)-2-(2-isopropylphenyl)piperazin-1-yl)-2-azaspiro[3.3]heptan-2-yl)-2-((3-fluoro-1H-pyrrolo[2,3-b]pyridin-5-yl)oxy)-N-((4-((((1r,4r)-4-hydroxy-4-methylcyclohexyl)methyl)amino)-3-nitrophenyl)sulfonyl) benzamide] | – | – | – | – | 0.14 nM | – | 9.85 | 1.0 | 2.9 | 0.39 nM | 0.13 nM | 0.2 nM
CC(C)c1ccccc1[C@@H]1CN(Cc2ccc(OC3CC3)cc2)CCN1C1CC2(C1)CN(c1ccc(C(=O)NS(=O)(=O)c3ccc(NC[C@H]4CC[C@](C)(O)CC4)c([N+](=O)[O-])c3)c(Oc3cnc4[nH]cc(F)c4c3)c1)C2 [Example 365] | – | – | – | – | 0.46 nM | – | 9.29 | 1.1 | 2.9 | 1.3 nM | 0.12 nM | 0.26 nM
COc1cc(CN2CCN(C3CC4(C3)CN(c3ccc(C(=O)NS(=O)(=O)c5ccc(NC[C@H]6CC[C@](C)(O)CC6)c([N+](=O)[O-])c5)c(Oc5cnc6[nH]cc(F)c6c5)c3)C4)[C@H](c3ccccc3C(C)C)C2)ccc1C1CCOCC1 [Example 367] | – | – | – | – | 0.35 nM | – | 9.40 | 1.2 | 2.6 | 0.9 nM | 0.11 nM | 0.3 nM
